PMC5615911 (Toxicology Reports, 2016)
Entries after “also recorded” stand apart in the source; their conditions may differ.

Assays:
CYP1A2 = target: T1, CYP1A2 (Homo sapiens, UniProt P05177); assay: CYP inhibition, LC–MS/MS assay in human liver microsomes
T1 sequence (P05177 1-516): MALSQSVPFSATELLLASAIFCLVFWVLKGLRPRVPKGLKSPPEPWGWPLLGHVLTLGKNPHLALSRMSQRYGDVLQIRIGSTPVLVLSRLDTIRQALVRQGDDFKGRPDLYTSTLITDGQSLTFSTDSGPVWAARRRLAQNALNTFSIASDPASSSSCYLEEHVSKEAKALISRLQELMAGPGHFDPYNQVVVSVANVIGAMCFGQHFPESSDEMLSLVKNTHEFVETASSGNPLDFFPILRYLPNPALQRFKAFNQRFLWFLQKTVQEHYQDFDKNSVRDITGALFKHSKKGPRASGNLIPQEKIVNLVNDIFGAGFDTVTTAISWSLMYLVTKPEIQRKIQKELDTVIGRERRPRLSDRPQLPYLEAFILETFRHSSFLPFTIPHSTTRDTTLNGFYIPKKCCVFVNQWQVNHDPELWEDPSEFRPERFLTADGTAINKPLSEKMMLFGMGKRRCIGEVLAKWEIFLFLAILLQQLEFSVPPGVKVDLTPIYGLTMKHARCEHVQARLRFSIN

[1] = system: Primary human lymphocytes; assay: In vitro chromosome aberration test
[2] = system: GPCRs, ion channels, nuclear receptors, transporters; assay: Receptor lead profiling panel; conditions: 10 μM
CYP2D6 = CYP2D6 (Homo sapiens, UniProt P10635); assay: CYP inhibition, LC–MS/MS assay in human liver microsomes; conditions: probe bufuralol
CYP2D6, sequence (P10635 whole entry): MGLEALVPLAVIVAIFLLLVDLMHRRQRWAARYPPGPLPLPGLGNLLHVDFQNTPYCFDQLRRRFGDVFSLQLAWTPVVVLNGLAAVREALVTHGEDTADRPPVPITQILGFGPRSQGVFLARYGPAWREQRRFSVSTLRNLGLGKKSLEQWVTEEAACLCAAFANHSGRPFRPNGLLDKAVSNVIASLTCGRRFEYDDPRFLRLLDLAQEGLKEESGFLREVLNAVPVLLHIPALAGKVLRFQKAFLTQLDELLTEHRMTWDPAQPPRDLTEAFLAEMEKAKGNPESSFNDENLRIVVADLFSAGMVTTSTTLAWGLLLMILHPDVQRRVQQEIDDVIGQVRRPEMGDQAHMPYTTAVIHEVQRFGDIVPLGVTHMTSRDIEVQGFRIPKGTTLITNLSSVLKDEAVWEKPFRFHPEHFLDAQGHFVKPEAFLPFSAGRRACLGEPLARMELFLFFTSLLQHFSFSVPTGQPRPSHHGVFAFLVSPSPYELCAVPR

[3] = 90-day subchronic toxicity study; assay type: in vivo, Sprague-Dawley rats
CYP2C19 = CYP2C19 (Homo sapiens, UniProt P33261); assay: CYP inhibition, LC–MS/MS assay in human liver microsomes; conditions: probe S-mephenytoin
CYP2C19, sequence (P33261 whole entry): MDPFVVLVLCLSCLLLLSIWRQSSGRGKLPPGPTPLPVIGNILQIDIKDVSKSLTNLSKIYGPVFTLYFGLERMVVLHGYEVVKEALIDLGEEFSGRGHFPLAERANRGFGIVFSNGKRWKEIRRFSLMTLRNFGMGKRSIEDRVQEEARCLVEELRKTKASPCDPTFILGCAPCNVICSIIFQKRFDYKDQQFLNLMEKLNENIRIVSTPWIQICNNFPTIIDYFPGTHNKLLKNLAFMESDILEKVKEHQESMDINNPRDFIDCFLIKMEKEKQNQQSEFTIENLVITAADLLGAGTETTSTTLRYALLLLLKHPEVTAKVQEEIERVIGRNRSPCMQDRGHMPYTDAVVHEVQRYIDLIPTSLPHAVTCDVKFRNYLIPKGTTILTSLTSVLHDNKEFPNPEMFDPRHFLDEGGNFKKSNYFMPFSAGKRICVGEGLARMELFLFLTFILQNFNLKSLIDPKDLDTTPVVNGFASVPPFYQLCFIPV

[4] = 10, 30, 100 mg/kg bw/day (food ad-mix)

## COc1cccc(-c2n[nH]c(SCc3ccccn3)n2)c1OC [S3643, 2-(((3-(2,3-dimethoxyphenyl)-1H-1,2,4-triazol-5-yl)thio)methyl)pyridine]
CYP1A2
  IC50: > 10 µM
CYP1A2; human, human liver microsomes, probe phenacetin
  inhibition at 10 µM: 43%
[1]; 63–250 μg/mL, 3 h exposure, +S9
  Chromosome aberration (in vitro), result: Negative
[1]; 63–250 μg/mL, 20 h exposure, −S9
  Chromosome aberration (in vitro), result: Negative
[1]; 130–500 μg/mL, 3 h exposure, −S9
  Chromosome aberration (in vitro), result: Negative
[1]; non-activated and S9-activated
  Induction of structural and numerical chromosome aberrations, conclusion: negative
[2]
  Significant responses (≥50% inhibition or stimulation): No significant responses; also recorded: No other significant off-target activities
CYP2D6
  inhibition at 10 µM: 22%
[3]; [4]
  Findings, adverse effects: No adverse test-article related findings
  Findings, body weight: Lower body weight gain in females at 100 mg/kg/day
[3]; 90 days in diet, male and female rats, highest dose tested
  NOAEL: 100 mg/kg bw/day
[3]; females, 100 mg/kg bw/day, beginning at Week 5
  Mean body weight lower than controls: 7%
[3]; males, 100 mg/kg bw/day
  Absolute liver weight increase vs control: 12.5%
  Liver/body weight increase vs control: 14.1%
  Liver/brain weight increase vs control: 13.5%
[3]; rat, in vivo
  Margin of safety (NOAEL vs per capita intake 5 μg/kg bw/day): > 20,000 fold
CYP2C19
  inhibition at 10 µM: 13%
